SMILES strings stand for the structures. “And” between values parts separate entries of the source, which are not always exact repeats. Identical values can stand only once.

The experiment deals with D(2) dopamine receptor (Rattus norvegicus, UniProt P61169).
Sequence of D(2) dopamine receptor (P61169 whole entry): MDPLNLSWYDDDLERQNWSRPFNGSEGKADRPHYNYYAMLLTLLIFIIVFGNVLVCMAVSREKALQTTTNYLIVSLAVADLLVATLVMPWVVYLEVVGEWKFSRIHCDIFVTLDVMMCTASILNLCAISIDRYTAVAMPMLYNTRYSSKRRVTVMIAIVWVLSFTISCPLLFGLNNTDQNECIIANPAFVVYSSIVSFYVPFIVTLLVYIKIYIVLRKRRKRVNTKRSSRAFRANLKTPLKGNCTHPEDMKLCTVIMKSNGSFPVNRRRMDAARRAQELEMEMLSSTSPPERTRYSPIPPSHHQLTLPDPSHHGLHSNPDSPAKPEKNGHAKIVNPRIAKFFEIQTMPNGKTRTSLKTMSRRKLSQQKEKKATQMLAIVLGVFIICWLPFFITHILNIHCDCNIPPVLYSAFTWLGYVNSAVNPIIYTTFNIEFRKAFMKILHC

With `Cc1cccc(N2CCN(CCCOc3ccc4ccc(=O)[nH]c4c3)CC2)c1C` [NSC_163839], the inhibitory constant (Ki) is 19.8 nM and 18 nM and 9.8 nM.

The record behind these values is BindingDB's records for PubMed 7616416 (Third Tokushima Institute of New Drug Research, 1995).
